Source: ChEMBL document CHEMBL5346924, “Optically activated MEK1/2 inhibitors (Opti-MEKi) as potential antimelanoma agents” (Eur J Med Chem, 2023)
Activity calls are given as the source filed them. The rule behind the calls is not given here.

Legend:
[1] = molecular target: T1, Dual specificity mitogen-activated protein kinase kinase 1 (Homo sapiens, UniProt Q02750); experiment: Inhibition of MEK1 (unknown origin) incubated for 1 hrs in the presence of ATP by FRET-based Z'-Lyte assay
A-375 [2] = experiment: Antiproliferative activity against human A-375 cells harboring BRAF V600E mutant assessed as cell growth inhibition incubated for 72 hrs in the absence of UV irradiation by CellTiter-Glo luminescent assay; type: functional; settings: A-375, light or radiation study
A-375 [3] = experiment: Antiproliferative activity against human A-375 cells harboring BRAF V600E mutant assessed as cell growth inhibition preincubated with compound for 1 hrs followed by UV irradiation for 3 mins and measured 72 hrs post compound treatment by CellTiter-Glo luminescent assay; type: functional; settings: A-375, light or radiation study
A-375 [4] = experiment: Antiproliferative activity against human A-375 cells harboring BRAF V600E mutant assessed as cell growth inhibition preincubated with compound for 1 hrs followed by UV irradiation for 5 mins and measured 72 hrs post compound treatment by CellTiter-Glo luminescent assay; type: functional; settings: A-375, light or radiation study
HCT-116 = experiment: Antiproliferative activity against human HCT-116 cells harboring KRAS G13D mutant assessed as cell growth inhibition incubated for 72 hrs in the absence of UV irradiation by CellTiter-Glo luminescent assay; type: functional; settings: HCT-116, light or radiation study
A549 [5] = experiment: Antiproliferative activity against human A549 cells harboring KRAS […] mutant assessed as cell growth inhibition incubated for 72 hrs in the absence of UV irradiation by CellTiter-Glo luminescent assay; type: functional; settings: A549, light or radiation study
A549 [6] = experiment: Antiproliferative activity against human A549 cells harboring KRas […] mutant assessed as cell growth inhibition preincubated with compound for 1 hrs followed by UV irradiation for 5 mins and measured 72 hrs post compound treatment by CellTiter-Glo luminescent assay; type: functional; settings: A549, light or radiation study
[7] = Cytotoxicity against HEK293T cells assessed as cell growth inhibition incubated for 72 hrs by CellTiter-Glo luminescent assay; type: toxicity, cell-based, HEK-293T; settings: human
A-375 [8] = experiment: Inhibition of colony formation in human A-375 cells at 10 to 300 nM incubated for 10 days by crystal violet staining based analysis; type: functional, cell-based; settings: dose 10-300 nM, time 10.0 day
A-375 [9] = experiment: Inhibition of colony formation in human A-375 cells preincubated with compound for 1 hrs followed by 365 nm light irradiation for 5 mins and measured for 10 days by crystal violet staining based analysis; type: functional, cell-based; settings: dose 10-300 nM, time 14465.0 min
[10] = molecular target: T1, Dual specificity mitogen-activated protein kinase kinase 1; experiment: Inhibition of recombinant human MEK1 at 1 uM
[11] = molecular target: Mitogen-activated protein kinase 3 (Homo sapiens) (UniProt P27361); experiment: Inhibition of recombinant human ERK1 at 1 uM
Sequence of Mitogen-activated protein kinase 3 (Homo sapiens) (P27361 whole entry): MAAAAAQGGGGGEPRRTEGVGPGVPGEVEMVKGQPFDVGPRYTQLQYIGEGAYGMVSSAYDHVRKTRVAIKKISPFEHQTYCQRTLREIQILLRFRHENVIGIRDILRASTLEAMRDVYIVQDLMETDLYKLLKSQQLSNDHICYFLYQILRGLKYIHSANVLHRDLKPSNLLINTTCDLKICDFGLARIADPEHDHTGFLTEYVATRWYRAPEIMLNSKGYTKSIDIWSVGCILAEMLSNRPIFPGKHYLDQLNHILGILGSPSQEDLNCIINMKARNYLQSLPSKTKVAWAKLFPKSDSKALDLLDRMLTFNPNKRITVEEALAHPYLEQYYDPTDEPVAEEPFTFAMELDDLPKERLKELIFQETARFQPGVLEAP

[12] = molecular target: Ribosomal protein S6 kinase alpha-1 (Homo sapiens) (UniProt Q15418); experiment: Inhibition of recombinant human RSK1 at 1 uM
Sequence of Ribosomal protein S6 kinase alpha-1 (Homo sapiens) (Q15418 whole entry): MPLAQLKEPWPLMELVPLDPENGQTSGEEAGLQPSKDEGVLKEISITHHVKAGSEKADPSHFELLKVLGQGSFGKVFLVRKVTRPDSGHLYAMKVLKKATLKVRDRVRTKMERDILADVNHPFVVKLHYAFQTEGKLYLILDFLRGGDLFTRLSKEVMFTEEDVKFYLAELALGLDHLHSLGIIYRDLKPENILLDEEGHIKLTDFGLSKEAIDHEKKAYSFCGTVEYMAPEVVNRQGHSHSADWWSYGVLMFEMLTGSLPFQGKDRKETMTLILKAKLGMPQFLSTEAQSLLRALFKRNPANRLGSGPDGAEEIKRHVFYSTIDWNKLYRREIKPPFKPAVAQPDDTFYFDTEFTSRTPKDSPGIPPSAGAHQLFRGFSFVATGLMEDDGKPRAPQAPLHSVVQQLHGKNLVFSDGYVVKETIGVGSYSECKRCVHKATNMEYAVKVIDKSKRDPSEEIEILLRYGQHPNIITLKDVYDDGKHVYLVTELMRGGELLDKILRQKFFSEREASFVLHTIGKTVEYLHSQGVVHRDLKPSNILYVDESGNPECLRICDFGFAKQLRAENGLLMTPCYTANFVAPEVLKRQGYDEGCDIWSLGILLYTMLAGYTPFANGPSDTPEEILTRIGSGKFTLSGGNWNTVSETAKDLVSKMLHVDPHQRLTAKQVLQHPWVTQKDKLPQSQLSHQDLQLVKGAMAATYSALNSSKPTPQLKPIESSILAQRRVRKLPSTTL

[13] = molecular target: RAC-alpha serine/threonine-protein kinase (Homo sapiens) (UniProt P31749); experiment: Inhibition of recombinant human AKT1 at 1 uM
Sequence of RAC-alpha serine/threonine-protein kinase (Homo sapiens) (P31749 whole entry): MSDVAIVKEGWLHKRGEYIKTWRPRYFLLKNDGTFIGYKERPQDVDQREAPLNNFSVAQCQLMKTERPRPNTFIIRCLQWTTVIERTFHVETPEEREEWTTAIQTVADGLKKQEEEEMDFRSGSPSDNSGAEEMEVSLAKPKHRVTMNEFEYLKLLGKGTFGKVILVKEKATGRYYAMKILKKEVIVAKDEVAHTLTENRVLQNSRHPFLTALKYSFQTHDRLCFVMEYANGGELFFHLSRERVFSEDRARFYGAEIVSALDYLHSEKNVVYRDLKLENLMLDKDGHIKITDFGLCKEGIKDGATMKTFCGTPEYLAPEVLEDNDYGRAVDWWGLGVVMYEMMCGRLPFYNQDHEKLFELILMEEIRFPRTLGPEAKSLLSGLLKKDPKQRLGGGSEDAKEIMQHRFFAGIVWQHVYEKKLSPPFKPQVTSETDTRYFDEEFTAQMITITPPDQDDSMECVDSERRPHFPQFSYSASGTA

Homo sapiens = organism: Homo sapiens; experiment: Inhibition of recombinant human PI3K at 1 uM
[14] = molecular target: Epidermal growth factor receptor (Homo sapiens) (UniProt P00533); experiment: Inhibition of recombinant human EGFR at 1 uM
[15] = molecular target: T2, Mitogen-activated protein kinase; ERK1/ERK2 (Homo sapiens, UniProt P27361+P28482); experiment: Inhibition of ERK1/2 phosphorylation in human A-375 cells upto 10 uM incubated for 1 hrs in the absence of UV irradiation by Western blot analysis; type: cell-based
T2 sequence (P27361 whole entry, looked up): as the sequence (P27361 whole entry) above
T2 sequence (P28482 whole entry, looked up): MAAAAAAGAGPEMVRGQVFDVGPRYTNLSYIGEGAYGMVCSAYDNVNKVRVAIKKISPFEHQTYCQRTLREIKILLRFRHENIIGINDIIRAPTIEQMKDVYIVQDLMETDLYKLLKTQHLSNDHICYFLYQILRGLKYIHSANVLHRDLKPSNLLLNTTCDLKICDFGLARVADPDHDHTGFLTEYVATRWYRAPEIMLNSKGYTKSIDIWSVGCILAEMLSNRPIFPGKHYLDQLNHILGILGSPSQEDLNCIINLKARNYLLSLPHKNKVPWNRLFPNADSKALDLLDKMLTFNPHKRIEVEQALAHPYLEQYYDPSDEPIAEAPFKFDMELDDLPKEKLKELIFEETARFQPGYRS

[16] = molecular target: T2, Mitogen-activated protein kinase; ERK1/ERK2; experiment: Inhibition of ERK1/2 phosphorylation in human A-375 cells preincubated with compound for 1 hrs followed by 365 nm light irradiation for 5 mins and measured after 1 hrs compound treatment by Western blot analysis; type: cell-based; settings: dose 1-100 nM, time 125.0 min
A-375 [17] = experiment: Inhibition of MEK/ERK/RSK signaling in human A-375 cells assessed as inhibition of ERK phosphorylation at 5 nM in the presence of 365 nm light irradiation for 30 sec to 5 min by Western blot analysis; type: cell-based
[18] = Metabolic stability in human liver microsomes assessed as parent compound remaining measured after 1 hrs in the absence of NADPH regenerating system; type: ADME, Microsome; settings: read-out: Stability
CYP1A2 = molecular target: T3, CYP1A2 (Homo sapiens, UniProt P05177); experiment: Inhibition of CYP1A2 in human microsomes at 10 uM in the presence of NADPH relative to control; type: ADME, Microsome
T3 sequence (P05177 whole entry): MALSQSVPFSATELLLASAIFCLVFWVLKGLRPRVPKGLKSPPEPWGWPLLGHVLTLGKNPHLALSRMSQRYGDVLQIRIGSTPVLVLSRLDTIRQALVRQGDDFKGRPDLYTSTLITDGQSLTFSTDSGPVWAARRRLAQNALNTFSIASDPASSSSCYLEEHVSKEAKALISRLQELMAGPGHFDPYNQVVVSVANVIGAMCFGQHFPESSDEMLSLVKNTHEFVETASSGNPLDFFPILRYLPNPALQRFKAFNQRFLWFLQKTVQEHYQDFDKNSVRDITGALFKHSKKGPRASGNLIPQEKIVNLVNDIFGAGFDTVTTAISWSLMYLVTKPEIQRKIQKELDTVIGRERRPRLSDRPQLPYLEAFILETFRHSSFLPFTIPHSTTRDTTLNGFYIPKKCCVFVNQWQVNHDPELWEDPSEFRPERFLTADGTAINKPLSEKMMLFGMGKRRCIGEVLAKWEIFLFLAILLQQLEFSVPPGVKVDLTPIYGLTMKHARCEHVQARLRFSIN

CYP2C9 = CYP2C9 (Homo sapiens, UniProt P11712); experiment: Inhibition of CYP2C9 in human microsomes at 10 uM in the presence of NADPH relative to control; type: ADME, Microsome
Sequence of CYP2C9 (P11712 whole entry): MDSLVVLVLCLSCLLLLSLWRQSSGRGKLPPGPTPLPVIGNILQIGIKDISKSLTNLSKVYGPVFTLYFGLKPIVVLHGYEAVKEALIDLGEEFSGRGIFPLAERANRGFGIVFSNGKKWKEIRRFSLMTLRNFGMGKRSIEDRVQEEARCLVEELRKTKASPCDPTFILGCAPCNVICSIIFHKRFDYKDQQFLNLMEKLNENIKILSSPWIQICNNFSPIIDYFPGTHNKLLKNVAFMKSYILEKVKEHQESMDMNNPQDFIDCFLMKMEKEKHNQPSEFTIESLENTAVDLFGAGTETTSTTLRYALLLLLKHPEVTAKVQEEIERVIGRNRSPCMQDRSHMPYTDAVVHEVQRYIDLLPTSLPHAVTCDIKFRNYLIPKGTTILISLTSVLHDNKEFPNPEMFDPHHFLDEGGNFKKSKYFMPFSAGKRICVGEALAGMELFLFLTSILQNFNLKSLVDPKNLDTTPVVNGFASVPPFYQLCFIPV

CYP2C19 = CYP2C19 (Homo sapiens, UniProt P33261); experiment: Inhibition of CYP2C19 in human microsomes at 10 uM in the presence of NADPH relative to control; type: ADME, Microsome
Sequence of CYP2C19 (P33261 whole entry): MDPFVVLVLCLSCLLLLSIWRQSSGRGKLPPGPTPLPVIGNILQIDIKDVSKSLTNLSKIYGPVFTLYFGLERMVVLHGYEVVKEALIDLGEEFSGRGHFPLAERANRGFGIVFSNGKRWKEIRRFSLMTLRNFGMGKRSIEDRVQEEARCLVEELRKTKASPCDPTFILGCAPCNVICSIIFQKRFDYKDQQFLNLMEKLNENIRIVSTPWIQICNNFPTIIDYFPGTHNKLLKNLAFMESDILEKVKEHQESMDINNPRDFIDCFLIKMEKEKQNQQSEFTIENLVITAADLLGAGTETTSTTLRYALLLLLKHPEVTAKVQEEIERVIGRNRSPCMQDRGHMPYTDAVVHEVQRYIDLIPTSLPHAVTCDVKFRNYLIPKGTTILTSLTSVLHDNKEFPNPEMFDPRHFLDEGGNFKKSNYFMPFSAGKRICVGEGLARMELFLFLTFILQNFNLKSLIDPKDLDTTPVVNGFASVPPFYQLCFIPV

CYP3A4 = CYP3A4 (Homo sapiens, UniProt P08684); experiment: Inhibition of CYP3A4 in human microsomes at 10 uM in the presence of NADPH relative to control; type: ADME, Microsome
Sequence of CYP3A4 (P08684 whole entry): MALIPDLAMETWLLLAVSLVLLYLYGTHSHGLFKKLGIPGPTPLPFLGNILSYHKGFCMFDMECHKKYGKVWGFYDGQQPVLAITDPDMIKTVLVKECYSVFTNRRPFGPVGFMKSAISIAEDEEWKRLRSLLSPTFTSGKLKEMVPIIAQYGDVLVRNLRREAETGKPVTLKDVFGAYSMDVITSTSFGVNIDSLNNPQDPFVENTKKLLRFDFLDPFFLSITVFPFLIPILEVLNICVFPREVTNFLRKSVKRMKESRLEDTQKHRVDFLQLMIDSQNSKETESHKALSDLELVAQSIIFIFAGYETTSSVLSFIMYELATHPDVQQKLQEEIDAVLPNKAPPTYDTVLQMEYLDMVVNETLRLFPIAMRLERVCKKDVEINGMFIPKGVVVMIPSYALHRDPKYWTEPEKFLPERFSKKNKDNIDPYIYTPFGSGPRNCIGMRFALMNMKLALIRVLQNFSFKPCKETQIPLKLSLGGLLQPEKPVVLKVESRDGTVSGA

A-375 [19] = experiment: Antiproliferative activity against CM-Dil labelled human A-375 cells xenografted in Zebra fish AB at 45 pM administered from 3 days post fertilization and measured at day 5 post fertilization in the absence of irradiation by fluorescence based analysis; type: functional, cell-based; settings: time 48.0 hrs
A-375 [20] = experiment: Antiproliferative activity against CM-Dil labelled human A-375 cells xenografted in Zebra fish AB assessed as suppression of tumor growth by measuring red fluorescence preincubated with compound followed by 365 nm light irradiation for 5 mins and measured after 48 hrs by fluorescence based analysis; type: functional, cell-based; settings: dose 45-90 pM
[21] = Photoactivation of the compound assessed as fold change in caging efficiency
[22] = Photoactivation of the compound assessed as photocleavage by measuring decay half-life in the presence of 365 nm UV irradiation by HPLC based LC-MS analysis
[23] = Selectivity ratio of GI50 for antiproliferative activity against human A-375 cells harboring BRAF V600E mutant in the absence of UV irradiation to GI50 for antiproliferative activity against human A-375 cells harboring BRAF V600E mutant in the presence of UV irradiation for 5 mins; type: functional

T1 sequence (Q02750 whole entry): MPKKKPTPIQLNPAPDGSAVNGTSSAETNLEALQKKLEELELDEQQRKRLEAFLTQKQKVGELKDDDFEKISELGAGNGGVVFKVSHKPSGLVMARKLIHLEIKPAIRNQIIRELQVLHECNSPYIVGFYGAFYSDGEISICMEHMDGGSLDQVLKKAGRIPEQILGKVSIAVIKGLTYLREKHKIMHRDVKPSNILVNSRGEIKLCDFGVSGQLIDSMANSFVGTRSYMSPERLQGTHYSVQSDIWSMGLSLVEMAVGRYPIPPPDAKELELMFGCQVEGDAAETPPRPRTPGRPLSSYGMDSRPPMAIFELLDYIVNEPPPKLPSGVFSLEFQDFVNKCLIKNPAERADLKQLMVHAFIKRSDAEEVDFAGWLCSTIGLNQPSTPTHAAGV

COc1cc(C(C)O/C(=N\OC[C@H](O)CO)c2ccc(F)c(F)c2Nc2ccc(I)cc2F)c([N+](=O)[O-])cc1OC (some centres undefined)
IC50 [1]: > 30 µM | GI50 (A-375 [2]): 12.7 µM | GI50 (A-375 [3]): 0.00295 µM | GI50 (A-375 [4]): 0.00213 µM | GI50 (HCT-116): > 10 µM | GI50 (A549 [5]): > 10 µM | GI50 (A549 [6]): 0.0278 µM | GI50 at 72 h [7]: > 10 µM | inhibition (A-375 [8]): inactive | inhibition (A-375 [9]): Active | inhibition [10]: inactive | inhibition [11]: inactive | inhibition [12]: inactive | inhibition [13]: inactive | inhibition (Homo sapiens): inactive | inhibition [14]: inactive | inhibition [15]: inactive | inhibition [16]: Dose-Dependent Effect | inhibition (A-375 [17]): Active | remaining at 1 h [18]: 84.5% | inhibition at 10 µM (CYP1A2): 0% | inhibition at 10 µM (CYP2C9): 63.3% | inhibition at 10 µM (CYP2C19): 44.6% | inhibition at 10 µM (CYP3A4): 92.4% | Activity (A-375 [19]): inactive | Activity (A-375 [20]): Dose-Dependent Effect | fold change (FC) [21]: > 5085 | half-life [22]: 1.41 min | RatioGI50 [23]: >5000
